Assay results: PubChem BioAssay (NCI)
“And” between values parts separate entries of the source, which are not always exact repeats. Identical values can stand only once.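 Protocol summary: plate cells (96-well), add compound at 5 concentrations, incubate 48 h, interpolate endpoints linearly. GI50 is the concentration that inhibits growth by half. TGI denotes the concentration required for complete inhibition of growth.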

Tested on: BT-549 breast
Experiment: NCI tumour cell line growth inhibition, 48 h

SMILES	GI50	TGI
CC[C@@H](c1ccc(O)c(O)c1)[C@@H](CC)c1ccc(O)c(O)c1	13.2 µM	26.1 µM
O=C1OCC2=C1C(c1cccc(Br)c1)c1cc3c(cc1N2CCO)OCCO3 (centres undefined)	0.136 µM	6.35 µM
COc1cc(-c2nc3sccn3c2-c2ccnc(NCCNS(=O)(=O)c3ccc(F)cc3)n2)ccc1F	0.292 µM	> 100 µM
O=C1CSC(=S)N1/N=C/c1ccc(Cl)c([N+](=O)[O-])c1	–	37.9 µM
Cn1cc(-c2cc3c(N4CCN(c5ncc([C@@](C)(N)c6ccc(F)cc6)cn5)CC4)ncnn3c2)cn1	5.15 µM	> 100 µM
CCCCCCCCCCSC(=N)N (tested in a mixture with another compound)	6.65 µM	25.9 µM
CCOc1ccc(NC2=CC(=O)C(=O)c3ccccc32)cc1	–	3.02 µM
O=C1c2ccccc2C(=O)c2c(/C=C\N3CCCCC3)ccnc21	–	2.22 µM
C=C1C[C@H](O)[C@H](Br)C(C)(C)[C@@]12CCC(C)=C(Cl)C2	0.248 µM	2.82 µM
O=C(NC1CCCCC1)NS(=O)(=O)c1ccc(N2N=C3c4ccccc4CC3C2c2ccc(Cl)cc2)cc1 (centres undefined)	7.01 µM	25.2 µM
c1ccc(-c2n(Cc3ccc4ccccc4n3)cc[n+]2Cc2ccc3ccccc3c2)cc1	1.63 µM	3.7 µM
C[C@@H]1CC[C@H]2C(C)(C)[C@H]3C[C@@]12CC[C@@]3(C)O	–	> 100 µM
O=C(Nc1cccc(C(F)(F)F)c1)Nc1cccc(C(F)(F)F)c1	2.29 µM	6.44 µM
CCOC(=O)n1cc(C2=C(c3ccc(OC)c(OC)c3)COC2=O)c2ccccc21	0.105 µM	22.6 µM
CC(=C(c1ccc(OCCN2CCCCC2)cc1)c1ccc(OCCN2CCCCC2)cc1)c1ccc(Cl)cc1	0.414 µM	0.787 µM
C=C(C)C(=O)O[C@@H]1C[C@@]2(C)O[C@@H]2C[C@H](O)/C(C)=C/[C@H]2OC(=O)C(=C)[C@@H]21	–	> 100 µM
C=CC(=O)Nc1cc(Nc2nccc(-c3cn(C)c4ccccc34)n2)c(OC)cc1N(C)CCN(C)C	3.52 µM and 2.95 µM	12.8 µM and > 10 µM
CC(=O)OC1(C)N=NC2(CCCCC2)O1 (centres undefined)	–	> 100 µM
C=C1C(=O)O[C@H]2[C@H]1CC/C(CNC(=O)c1cc3ccccc3[nH]1)=C\CC[C@@]1(C)O[C@@H]21	1.69 µM	3.34 µM
Cc1cc2c(cc1C)[n+](=O)c(C(=O)c1ccccc1)c(C(F)F)n2[O-]	14.2 µM	65.3 µM
COc1cc2c(cc1OC)C(Cl)C(c1ccc(F)cc1)=C2Cl (centres undefined)	–	15.6 µM
CN(C)c1ccc(/C=N/NC(=S)Nc2ccccc2)cc1	–	> 100 µM
COc1ccc2ncnc(Nc3ccc(OCc4ccccc4)cc3)c2c1	7.91 µM	> 25 µM
O=C1c2c(F)c(F)c(F)c(F)c2C(=O)N1c1ccc(F)cc1F	11.9 µM	28 µM
CC(C)[C@@H]1NC(=O)[C@]2(C)CSC(=N2)c2ccnc(c2)CNC(=O)C[C@@H](/C=C/CCS)OC1=O	0.718 µM	> 100 µM
OC(c1cc(C(F)(F)F)nc2c(C(F)(F)F)cccc12)C1CCCCN1 (centres undefined)	3.24 µM	8.67 µM
C/C=C/[C@@H]1O[C@@H]2COC(=O)C2=C[C@@H]1O	3.59 µM	15.2 µM

Tested on: DU-145 prostate
Experiment: NCI tumour cell line growth inhibition, 48 h

SMILES	GI50	TGI
CC[C@@H](c1ccc(O)c(O)c1)[C@@H](CC)c1ccc(O)c(O)c1	12.9 µM	26.2 µM
O=C1OCC2=C1C(c1cccc(Br)c1)c1cc3c(cc1N2CCO)OCCO3 (centres undefined)	0.107 µM	0.752 µM
COc1cc(-c2nc3sccn3c2-c2ccnc(NCCNS(=O)(=O)c3ccc(F)cc3)n2)ccc1F	2.42 µM	> 100 µM
O=C1CSC(=S)N1/N=C/c1ccc(Cl)c([N+](=O)[O-])c1	–	> 100 µM
Cn1cc(-c2cc3c(N4CCN(c5ncc([C@@](C)(N)c6ccc(F)cc6)cn5)CC4)ncnn3c2)cn1	> 100 µM	> 100 µM
CCCCCCCCCCSC(=N)N (tested in a mixture with another compound)	4.47 µM	16.1 µM
CCOc1ccc(NC2=CC(=O)C(=O)c3ccccc32)cc1	–	5.05 µM
O=C1c2ccccc2C(=O)c2c(/C=C\N3CCCCC3)ccnc21	–	2.96 µM
C=C1C[C@H](O)[C@H](Br)C(C)(C)[C@@]12CCC(C)=C(Cl)C2	0.276 µM	3.25 µM
O=C(NC1CCCCC1)NS(=O)(=O)c1ccc(N2N=C3c4ccccc4CC3C2c2ccc(Cl)cc2)cc1 (centres undefined)	5.5 µM	21.1 µM
c1ccc(-c2n(Cc3ccc4ccccc4n3)cc[n+]2Cc2ccc3ccccc3c2)cc1	2.7 µM	11.3 µM
C[C@@H]1CC[C@H]2C(C)(C)[C@H]3C[C@@]12CC[C@@]3(C)O	–	> 100 µM
O=C(Nc1cccc(C(F)(F)F)c1)Nc1cccc(C(F)(F)F)c1	0.92 µM	12.4 µM
CCOC(=O)n1cc(C2=C(c3ccc(OC)c(OC)c3)COC2=O)c2ccccc21	0.0794 µM	> 100 µM
CC(=C(c1ccc(OCCN2CCCCC2)cc1)c1ccc(OCCN2CCCCC2)cc1)c1ccc(Cl)cc1	0.458 µM	0.87 µM
C=C(C)C(=O)O[C@@H]1C[C@@]2(C)O[C@@H]2C[C@H](O)/C(C)=C/[C@H]2OC(=O)C(=C)[C@@H]21	–	> 100 µM
C=CC(=O)Nc1cc(Nc2nccc(-c3cn(C)c4ccccc34)n2)c(OC)cc1N(C)CCN(C)C	1.76 µM and 1.33 µM	12 µM and > 10 µM
CC(=O)OC1(C)N=NC2(CCCCC2)O1 (centres undefined)	–	> 100 µM
C=C1C(=O)O[C@H]2[C@H]1CC/C(CNC(=O)c1cc3ccccc3[nH]1)=C\CC[C@@]1(C)O[C@@H]21	0.575 µM	1.87 µM
Cc1cc2c(cc1C)[n+](=O)c(C(=O)c1ccccc1)c(C(F)F)n2[O-]	10.5 µM	46.4 µM
COc1cc2c(cc1OC)C(Cl)C(c1ccc(F)cc1)=C2Cl (centres undefined)	–	37.5 µM
CN(C)c1ccc(/C=N/NC(=S)Nc2ccccc2)cc1	–	> 100 µM
COc1ccc2ncnc(Nc3ccc(OCc4ccccc4)cc3)c2c1	8.2 µM	> 25 µM
O=C1c2c(F)c(F)c(F)c(F)c2C(=O)N1c1ccc(F)cc1F	8 µM	23.4 µM
CC(C)[C@@H]1NC(=O)[C@]2(C)CSC(=N2)c2ccnc(c2)CNC(=O)C[C@@H](/C=C/CCS)OC1=O	0.231 µM	> 100 µM
OC(c1cc(C(F)(F)F)nc2c(C(F)(F)F)cccc12)C1CCCCN1 (centres undefined)	2.76 µM	6.16 µM
C/C=C/[C@@H]1O[C@@H]2COC(=O)C2=C[C@@H]1O	5.03 µM	18.8 µM

Tested on: EKVX NSCLC
Experiment: NCI tumour cell line growth inhibition, 48 h

SMILES	GI50 [µM]	TGI [µM]
CC[C@@H](c1ccc(O)c(O)c1)[C@@H](CC)c1ccc(O)c(O)c1	13.4	29.4
O=C1OCC2=C1C(c1cccc(Br)c1)c1cc3c(cc1N2CCO)OCCO3 (centres undefined)	1.3	48.7
COc1cc(-c2nc3sccn3c2-c2ccnc(NCCNS(=O)(=O)c3ccc(F)cc3)n2)ccc1F	3.4	> 100
O=C1CSC(=S)N1/N=C/c1ccc(Cl)c([N+](=O)[O-])c1	–	76.9
Cn1cc(-c2cc3c(N4CCN(c5ncc([C@@](C)(N)c6ccc(F)cc6)cn5)CC4)ncnn3c2)cn1	4.14	> 100
CCCCCCCCCCSC(=N)N (tested in a mixture with another compound)	6.89	23.7
CCOc1ccc(NC2=CC(=O)C(=O)c3ccccc32)cc1	–	30.9
O=C1c2ccccc2C(=O)c2c(/C=C\N3CCCCC3)ccnc21	–	31.2
C=C1C[C@H](O)[C@H](Br)C(C)(C)[C@@]12CCC(C)=C(Cl)C2	0.0371	1.37
O=C(NC1CCCCC1)NS(=O)(=O)c1ccc(N2N=C3c4ccccc4CC3C2c2ccc(Cl)cc2)cc1 (centres undefined)	5.38	22.8
c1ccc(-c2n(Cc3ccc4ccccc4n3)cc[n+]2Cc2ccc3ccccc3c2)cc1	2.33	12.8
C[C@@H]1CC[C@H]2C(C)(C)[C@H]3C[C@@]12CC[C@@]3(C)O	–	> 100
O=C(Nc1cccc(C(F)(F)F)c1)Nc1cccc(C(F)(F)F)c1	0.983	7.88
